Among the test systems are A549; Malme-3M; SW-620; OVCAR-8; NCI-H226; NCI-H460; PC-3; HL-60; M14; OVCAR-5; UO-31; SK-MEL-28; SF-539; LOX IMVI; UACC-257; SK-OV-3; HCT-15; UACC-62; HOP-62; SF-268.
What all share (assay): NCI-60 cell line screen, 48 h

SMILES strings stand for the structures.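 Five concentrations, 48 hours, 96-well plates. GI50 = concentration required for 50% inhibition of growth.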 Calls of active or inactive are those of the source. Cut-off read from the data, not from the text of the source: active = GI50 up to about 1.1 µM and inactive = higher.

Consider `CC1(C)OC(CCC#N)CN1C(=O)OCc1ccccc1` (stereo not given), for which the GI50 in the assay with A549 is > 100 µM (inactive); in the assay on Malme-3M, 49 µM (inactive); with SW-620, > 100 µM (inactive); with OVCAR-8, > 100 µM (inactive); with NCI-H226, 23.6 µM (inactive); in the assay on NCI-H460 it was > 100 µM (inactive). Further, the GI50 with PC-3, in the assay on HL-60, in the assay on M14, with OVCAR-5, with UO-31 and with SK-MEL-28 was > 100 µM (inactive) throughout. For the same compound, the GI50 in the assay on SF-539 was > 100 µM (inactive); in the assay on LOX IMVI, > 100 µM (inactive); in the assay with UACC-257 it was > 100 µM (inactive); with SK-OV-3 it was > 100 µM (inactive); in the assay with HCT-15, more than 100 µM; in the assay on UACC-62 it was > 100 µM (inactive).
Turning to `CCCCCC(C)(C)CCC(=O)OC1OC(COC2OC(COC3OC(CO)C(O)C(O)C3O)C(O)C(O)C2O)C(O)C(O)C1O` (stereo not given), the GI50 in the assay on A549, in the assay on Malme-3M, in the assay with SW-620, with OVCAR-8, in the assay with NCI-H226 and in the assay with HOP-62 was > 100 µM (inactive) in each case. The GI50 with NCI-H460, in the assay with PC-3, in the assay with HL-60, with M14, in the assay with OVCAR-5 and with UO-31 was > 100 µM (inactive) throughout. The GI50 in the assay on SF-539 is > 100 µM (inactive); in the assay on LOX IMVI, > 100 µM (inactive); in the assay on UACC-257, > 100 µM (inactive); with SF-268, > 100 µM (inactive); with SK-OV-3, > 100 µM (inactive); in the assay with HCT-15, more than 100 µM. Besides, the GI50 in the assay on UACC-62 was > 100 µM (inactive).
Take `N#Cc1[nH]c(=S)[nH]c1N`: the GI50 in the assay on A549, with Malme-3M, in the assay on SW-620, in the assay with OVCAR-8, in the assay on NCI-H226 and in the assay with HOP-62 was > 100 µM (inactive) in each case. The GI50 with NCI-H460, with PC-3, in the assay with HL-60, in the assay on OVCAR-5, with UO-31 and in the assay with SK-MEL-28 was > 100 µM (inactive) in each case. The GI50 was > 100 µM (inactive) with SF-539; > 100 µM (inactive) in the assay with LOX IMVI; > 100 µM (inactive) in the assay with UACC-257; > 100 µM (inactive) in the assay on SF-268; > 100 µM (inactive) with SK-OV-3; more than 100 µM in the assay with HCT-15. For the same compound, the GI50 in the assay with UACC-62 is > 100 µM (inactive).
Turning to `O=C(O)Cc1cccc2c1OC(c1ccccc1)C(C(=O)c1ccccc1)C2=O` (stereo not given), the GI50 in the assay on A549 was 36.3 µM (inactive); in the assay with Malme-3M it was 63.4 µM (inactive); in the assay with SW-620, 37.8 µM (inactive); in the assay on OVCAR-8 it was 46.6 µM (inactive); in the assay with NCI-H226, > 100 µM (inactive); in the assay on HOP-62 it was > 100 µM (inactive). Moreover, the GI50 is 30.5 µM (inactive) in the assay with NCI-H460; > 100 µM (inactive) in the assay with PC-3; 26.5 µM (inactive) in the assay on HL-60; > 100 µM (inactive) in the assay on OVCAR-5; 88.9 µM (inactive) in the assay with UO-31; 65.3 µM (inactive) in the assay with SK-MEL-28. For the same compound, the GI50 with SF-539 is 51.5 µM (inactive); with LOX IMVI it was 83.8 µM (inactive); with UACC-257, > 100 µM (inactive); in the assay with SF-268 it was 44 µM (inactive); in the assay with SK-OV-3, 2.07 µM (inactive); in the assay with HCT-15 it was 98.4 µM. Further, the GI50 in the assay with UACC-62 was 13.4 µM (inactive).
